Laboratory results published in ChEMBL document CHEMBL1201862, “PubChem BioAssay data set” (2004).
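In this assay, cells in 96-well plates receive the compound at five concentrations for 48 hours. Endpoints are linearly interpolated between the surrounding concentrations. GI50 = concentration required for 50% inhibition of growth.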 Active and inactive are the calls of the source. Rule as the data show it: active = GI50 up to about 1.1 µM and inactive = higher.

Assays:
Test in all cases: inhibition of tumour cell growth, NCI panel, 48 h
[1] = system: CCRF-CEM
[2] = system: SNB-75
[3] = system: UACC-257
[4] = system: NCI-H23
[5] = system: HOP-62
[6] = system: A549
[7] = system: SK-MEL-28
[8] = system: SF-268
[9] = system: COLO 205
[10] = system: KM12
[11] = system: SR
[12] = system: TK-10
[13] = system: K562
[14] = system: SF-295
[15] = system: CAKI-1
[16] = system: NCI-H460
[17] = system: HT-29
[18] = system: MDA-MB-435
[19] = system: MDA-N
[20] = system: PC-3

Compound | GI50 [1] | GI50 [2] | GI50 [3] | GI50 [4] | GI50 [5] | GI50 [6] | GI50 [7] | GI50 [8] | GI50 [9] | GI50 [10] | GI50 [11] | GI50 [12] | GI50 [13] | GI50 [14] | GI50 [15] | GI50 [16] | GI50 [17] | GI50 [18] | GI50 [19] | GI50 [20]
C=CC[C@H](C[C@H](C[C@H](C[C@H](C[C@H](C[C@H](C[C@H](C[C@H](C[C@H](C[C@H](CCCCC)OC)OC)OC)OC)OC)OC)OC)OC)OC)OC | > 100 µM (inactive) | 58.1 µM (inactive) | 70.8 µM (inactive) | 98.6 µM (inactive) | > 100 µM (inactive) | > 100 µM (inactive) | > 100 µM (inactive) | > 100 µM (inactive) | > 100 µM (inactive) | > 100 µM (inactive) | 36.6 µM (inactive) | > 100 µM (inactive) | 70.3 µM (inactive) | > 100 µM (inactive) | > 100 µM (inactive) | > 100 µM (inactive) | > 100 µM (inactive) |  |  | 
Cc1ccc(C)c(NC(=O)CC2C(=O)Nc3ccccc3S2(=O)=O)c1 (centres undefined) | > 100 µM (inactive) | 21.5 µM (inactive) | > 100 µM (inactive) | 61.1 µM (inactive) |  | > 100 µM (inactive) | 72.9 µM (inactive) | 42.7 µM (inactive) |  |  | 61 µM (inactive) | > 100 µM (inactive) | 53.1 µM (inactive) | > 100 µM (inactive) | 31.8 µM (inactive) | > 100 µM (inactive) | > 100 µM (inactive) |  |  | 
Cc1cccc(C)c1NC(=O)C(=O)C(C#N)c1ccccc1Cl (centres undefined) | > 100 µM (inactive) | > 100 µM (inactive) | > 100 µM (inactive) | > 100 µM (inactive) | > 100 µM (inactive) | > 100 µM (inactive) | > 100 µM (inactive) | > 100 µM (inactive) | > 100 µM (inactive) | > 100 µM (inactive) | > 100 µM (inactive) | > 100 µM (inactive) | > 100 µM (inactive) | > 100 µM (inactive) | > 100 µM (inactive) | > 100 µM (inactive) | > 100 µM (inactive) |  |  | 
C1OC1C1CO1 (centres undefined) | 3.34 µM (inactive) | 14.6 µM (inactive) | 27.9 µM (inactive) | 18.1 µM (inactive) | 17.3 µM (inactive) | 30.1 µM (inactive) | 51.8 µM (inactive) | 6.43 µM (inactive) | > 100 µM (inactive) | > 100 µM (inactive) | 3.88 µM (inactive) | > 100 µM (inactive) | 80.2 µM (inactive) | 10.3 µM (inactive) | > 100 µM (inactive) |  | > 100 µM (inactive) |  |  | 
CC#CC#C/C=C1\C=CC2(OC=CC2O)O1 (centres undefined) | > 11.3 µM (inactive) | > 19.1 µM (inactive) | 16 µM (inactive) | > 20.3 µM (inactive) | > 23.3 µM (inactive) | 13.1 µM (inactive) | 13.3 µM (inactive) | > 23.3 µM (inactive) | 3.28 µM (inactive) | 3.32 µM (inactive) | > 12.7 µM (inactive) | > 23.3 µM (inactive) | 11.6 µM (inactive) | > 23.3 µM (inactive) | 14.8 µM (inactive) | > 23.3 µM (inactive) | 7.91 µM (inactive) |  |  | 
Clc1ccc2nc(-c3ccccc3)nc(Cl)c2c1 | 38.6 µM (inactive) | 22.1 µM (inactive) | 45 µM (inactive) | 69.2 µM (inactive) | 23.9 µM (inactive) | 50.6 µM (inactive) | 80.5 µM (inactive) | 52.8 µM (inactive) | > 100 µM (inactive) | > 100 µM (inactive) | > 100 µM (inactive) | 21.7 µM (inactive) | > 100 µM (inactive) | 46.3 µM (inactive) | 21.1 µM (inactive) | 87.9 µM (inactive) | > 100 µM (inactive) |  |  | 
N[C@H](COCc1ccccc1)c1ccccc1 | 23.8 µM (inactive) | 20 µM (inactive) | 28.1 µM (inactive) | 23 µM (inactive) | > 46.5 µM (inactive) | 33.5 µM (inactive) | 59.8 µM (inactive) | 42.1 µM (inactive) | 14.9 µM (inactive) | 27.4 µM (inactive) | 23.3 µM (inactive) | 32.1 µM (inactive) | 28 µM (inactive) | 30.5 µM (inactive) | 23.7 µM (inactive) | 22.8 µM (inactive) | 28.8 µM (inactive) |  |  | 
CNCc1cc(OC)ccc1-c1ccc(OC)c(OC)c1OC | > 92.9 µM (inactive) | 44.6 µM (inactive) | > 100 µM (inactive) | > 100 µM (inactive) | > 100 µM (inactive) | > 100 µM (inactive) | > 100 µM (inactive) | > 100 µM (inactive) | > 100 µM (inactive) | > 85.9 µM (inactive) | > 100 µM (inactive) | > 100 µM (inactive) | 51.9 µM (inactive) | 75 µM (inactive) | > 100 µM (inactive) | > 92 µM (inactive) | 82.6 µM (inactive) |  |  | 
CCOC(=O)C1CC/C(=C(/C#N)C(=O)OC)N1 (centres undefined) | > 100 µM (inactive) | > 100 µM (inactive) | > 100 µM (inactive) | > 100 µM (inactive) | > 100 µM (inactive) | > 100 µM (inactive) | > 100 µM (inactive) | > 100 µM (inactive) | > 100 µM (inactive) | > 100 µM (inactive) | > 100 µM (inactive) | > 100 µM (inactive) | > 100 µM (inactive) | > 100 µM (inactive) | > 100 µM (inactive) | > 100 µM (inactive) |  |  |  | 
COc1ccc2[nH]c3c(C)c4c(c(C)c3c2c1)CN(C)CC4 | 3.22 µM (inactive) | 18 µM (inactive) | 17.7 µM (inactive) |  | 17.3 µM (inactive) | 17.7 µM (inactive) | 14.2 µM (inactive) | 18.9 µM (inactive) | 17.4 µM (inactive) | 13.9 µM (inactive) | 23.4 µM (inactive) | 23.4 µM (inactive) | 4.59 µM (inactive) | 18.8 µM (inactive) | 18.5 µM (inactive) | 11.6 µM (inactive) | 6.47 µM (inactive) |  |  | 
NC(=O)C(=CN1CC(=O)NC1=S)C(N)=O |  | > 100 µM (inactive) | > 100 µM (inactive) | > 100 µM (inactive) | > 100 µM (inactive) | > 100 µM (inactive) | > 100 µM (inactive) | > 100 µM (inactive) | > 100 µM (inactive) | > 100 µM (inactive) |  | > 100 µM (inactive) |  | > 100 µM (inactive) | > 100 µM (inactive) | > 100 µM (inactive) | > 100 µM (inactive) | > 100 µM (inactive) | > 100 µM (inactive) | 
OCCOCn1cc(Cn2ncc3c(SCc4ccccc4)ncnc32)nn1 |  | 46 µM (inactive) | 53.7 µM (inactive) | 38.3 µM (inactive) | 48.1 µM (inactive) | 40.3 µM (inactive) | > 100 µM (inactive) | 75.5 µM (inactive) | 31.3 µM (inactive) | 32.3 µM (inactive) |  | > 100 µM (inactive) | 20.4 µM (inactive) | 45.1 µM (inactive) | 48.4 µM (inactive) | 38.3 µM (inactive) | 38.2 µM (inactive) | 15.5 µM (inactive) | 14.4 µM (inactive) | 69 µM (inactive)
O=C1c2ccccc2C(=O)c2c(O)c(NCCNCCO)cc(O)c21 | 3.05 µM (inactive) | 4.52 µM (inactive) | 6.59 µM (inactive) | 3.77 µM (inactive) | 3.93 µM (inactive) | 3.55 µM (inactive) | 5.11 µM (inactive) | 4.29 µM (inactive) |  | 3.72 µM (inactive) | 2.2 µM (inactive) | 5 µM (inactive) | 2.75 µM (inactive) | 10.2 µM (inactive) | 2.08 µM (inactive) | 3.34 µM (inactive) | 3.23 µM (inactive) |  |  | 
CCc1cccc(C(C)C)c1NC(=O)C(=O)C(Cc1nc2ccccc2nc1O)C(=O)OC (centres undefined) | 60.8 µM (inactive) | 65.6 µM (inactive) | > 100 µM (inactive) | > 100 µM (inactive) | > 100 µM (inactive) | > 100 µM (inactive) | > 100 µM (inactive) | 67.9 µM (inactive) | 43.8 µM (inactive) | > 100 µM (inactive) | 38.5 µM (inactive) | > 100 µM (inactive) | > 100 µM (inactive) | > 100 µM (inactive) | > 100 µM (inactive) | > 100 µM (inactive) | 95.3 µM (inactive) |  |  | 
Clc1ccc2c(Cl)ncnc2c1 | > 100 µM (inactive) | 42.8 µM (inactive) | > 100 µM (inactive) | > 100 µM (inactive) | > 100 µM (inactive) | > 100 µM (inactive) | > 100 µM (inactive) | > 100 µM (inactive) | > 100 µM (inactive) | > 100 µM (inactive) | > 100 µM (inactive) | > 100 µM (inactive) | > 100 µM (inactive) | > 100 µM (inactive) | > 100 µM (inactive) | > 100 µM (inactive) | > 100 µM (inactive) |  |  | 
SCc1ccc(-c2ccc(CS)cc2)cc1 | 1.43 µM (inactive) | 10.7 µM (inactive) | 21.1 µM (inactive) | 14.4 µM (inactive) | 6.75 µM (inactive) | 20.5 µM (inactive) | 9.55 µM (inactive) | 3.33 µM (inactive) | 18 µM (inactive) | 3.11 µM (inactive) | 2.42 µM (inactive) | 24.3 µM (inactive) | 4.07 µM (inactive) | 8.97 µM (inactive) | 4.42 µM (inactive) | 10.4 µM (inactive) | 26.9 µM (inactive) | 5.74 µM (inactive) |  | 17.4 µM (inactive)
CC(C)/C(Cl)=N\OC(=O)NNc1ccccc1 | < 0.0333 µM (active) | > 100 µM (inactive) | 1.3 µM (inactive) | 26.8 µM (inactive) | > 43.1 µM (inactive) | 0.0721 µM (active) |  | > 91.4 µM (inactive) | 0.119 µM (active) | 1.55 µM (inactive) |  | 68.7 µM (inactive) | < 0.01 µM (active) |  | 14.8 µM (inactive) | < 0.01 µM (active) | 0.397 µM (active) | 1 µM (active) | 20 µM (inactive) | 0.174 µM (active)
